Laboratory results as given in the supplement of paper PMC8671470.
± gives the standard deviation of the averaged measurements.

System: HL-60
Assay: cell viability (% survival relative to DMSO control); higher = less cytotoxic
Conditions: 72 h
How it was run: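 HL-60 cells in RPMI 1640 with 10% FBS were rescreened against the full library on 384-well plates at five tenfold concentrations, 1–10,000 nM, in duplicate. Each screen was run with DMSO or 100 nM of one of three metabolic inhibitors, for 72 h at 37 °C, 5% CO2. Viability was read by CellTiter-Glo and normalised to DMSO and 10 μM proteasome-inhibitor wells. Where given, area under the curve came from four-parameter log-logistic fits (drc, PharmacoGx).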

[1] = 0.001 µM, co-treatment: AZD3965 100 nM
[2] = 0.001 µM, co-treatment: DMSO vehicle
[3] = 0.001 µM, co-treatment: GSK2194069 100 nM
[4] = 0.001 µM, co-treatment: pictilisib 100 nM
[5] = 0.01 µM, co-treatment: AZD3965 100 nM
[6] = 0.01 µM, co-treatment: DMSO vehicle
[7] = 0.01 µM, co-treatment: GSK2194069 100 nM
[8] = 0.01 µM, co-treatment: pictilisib 100 nM
[9] = 0.1 µM, co-treatment: AZD3965 100 nM
[10] = 0.1 µM, co-treatment: DMSO vehicle
[11] = 0.1 µM, co-treatment: GSK2194069 100 nM
[12] = 0.1 µM, co-treatment: pictilisib 100 nM
[13] = 1 µM, co-treatment: AZD3965 100 nM
[14] = 1 µM, co-treatment: DMSO vehicle
[15] = 1 µM, co-treatment: GSK2194069 100 nM
[16] = 1 µM, co-treatment: pictilisib 100 nM
[17] = 10 µM, co-treatment: AZD3965 100 nM
[18] = 10 µM, co-treatment: DMSO vehicle
[19] = 10 µM, co-treatment: GSK2194069 100 nM
[20] = 10 µM, co-treatment: pictilisib 100 nM

SMILES	cell viability [1] [%]	cell viability [2] [%]	cell viability [3] [%]	cell viability [4] [%]	cell viability [5] [%]	cell viability [6] [%]	cell viability [7] [%]	cell viability [8] [%]	cell viability [9] [%]	cell viability [10] [%]	cell viability [11] [%]	cell viability [12] [%]	cell viability [13] [%]	cell viability [14] [%]	cell viability [15] [%]	cell viability [16] [%]	cell viability [17] [%]	cell viability [18] [%]	cell viability [19] [%]	cell viability [20] [%]
C[C@]12O[C@H](C[C@]1(O)CO)n1c3ccccc3c3c4c(c5c6ccccc6n2c5c31)CNC4=O [Lestaurtinib]	104 ± 3.9	98.1 ± 4.1	107 ± 9.9	102 ± 4.3	92.9 ± 13	70.9 ± 44	86.5 ± 36	66.2 ± 28	76.5 ± 4.3	86.9 ± 3.4	83.2 ± 7.7	53.5 ± 8.1	23.5 ± 3.5	26.6 ± 0.46	31 ± 4.3	20.3 ± 3.2	-1.19 ± 0.32	-1.8 ± 0.59	-1.73 ± 0.11	-2.07 ± 1.2
O=c1c2ccccc2[se]n1-c1ccccc1 [Ebselen]	104 ± 4.5	98.4 ± 6.1	96.3 ± 1.7	96.51 ± 0.22	101 ± 1.1	98.6 ± 6.1	102 ± 2.2	92.1 ± 3.8	102 ± 11	103 ± 4.5	103 ± 11	97.4 ± 12	104 ± 5.3	99 ± 4.8	108 ± 10	103 ± 3.2	100 ± 1.4	95.7 ± 5.4	98.4 ± 1.8	86.2 ± 7.3
O=C(O)C(Cl)Cl [Dichloroacetate]	96.1 ± 3.5	96.5 ± 1.4	98.6 ± 9.5	89.5 ± 5.3	105 ± 4.1	104 ± 6.4	104 ± 2	100 ± 12	104 ± 4	102 ± 2.5	96.3 ± 9.7	91 ± 4	101 ± 2.4	101 ± 2.9	98.3 ± 5.9	99.9 ± 2.8	101 ± 1.1	100.4 ± 0.25	102.8 ± 0.97	97 ± 5.1
O=P(O)(O)C(O)(Cn1ccnc1)P(=O)(O)O [Zoledronic acid]	102 ± 2.9	98.3 ± 11	91.7 ± 49	81.3 ± 24	101 ± 2.4	99.8 ± 2.5	92.3 ± 6.2	98.9 ± 1.2	102 ± 2.3	101 ± 1.7	95.8 ± 4.7	100 ± 9.7	101 ± 2.5	105.3 ± 0.2	103 ± 14	108 ± 12	98 ± 3.6	101 ± 5.2	80 ± 26	98 ± 7.6
[N-]=[N+]=CC(=O)CC[C@H](N)C(=O)O [6-Diazo-5-oxo-L-norleucine]	97.4 ± 11	98.1 ± 2.5	96.8 ± 8.2	86.7 ± 24	97.3 ± 4.9	100.1 ± 0.89	101 ± 3.5	102 ± 4.2	111 ± 13	103 ± 1.3	105 ± 9.1	102 ± 3.5	100.44 ± 0.019	101 ± 2.2	103 ± 6.7	105 ± 7.1	100 ± 1.3	101 ± 2.1	101.3 ± 0.3	87.8 ± 10
Cc1ccc(S(=O)(=O)NC2c3ccccc3Oc3ccccc32)cc1 [AH-7614]	100 ± 1.6	100 ± 0.64	104 ± 2.2	104.2 ± 0.15	99.6 ± 0.97	100.5 ± 0.4	101 ± 2.9	90.6 ± 8.2	102 ± 4.4	100.4 ± 0.53	96.8 ± 5.2	96.6 ± 2.9	97.3 ± 4.8	102.5 ± 0.72	95.1 ± 9.7	92.2 ± 15	95.8 ± 1.2	96.04 ± 0.12	97.2 ± 3.4	96.4 ± 7
O=C1Nc2ccccc2/C1=C\NCCc1ccc(O)c(O)c1 [AC1NZZMF]	95.6 ± 7.7	103 ± 1.8	99.4 ± 2.7	102 ± 6.3	90.2 ± 23	100.1 ± 0.38	98.5 ± 11	110 ± 4.9	102 ± 4	102 ± 1.2	100 ± 1.1	97.2 ± 13	105 ± 8.5	102.2 ± 0.11	99 ± 0.43	103 ± 13	87.9 ± 9.7	100.97 ± 0.1	95.4 ± 1.8	74.1 ± 3.9
CCOc1ccc(Cc2cc([C@@H]3O[C@H](CO)[C@@H](O)[C@H](O)[C@H]3O)ccc2Cl)cc1 [Dapagliflozin]	100.2 ± 0.34	105 ± 2.9	100.95 ± 0.06	99.1 ± 5.3	97.7 ± 4.2	101.3 ± 0.77	102 ± 1.1	103 ± 1.6	99.5 ± 0.33	100 ± 3.5	100 ± 4.8	101.6 ± 0.16	103.3 ± 0.55	99.6 ± 1.8	96 ± 1.6	104 ± 5.3	104 ± 2	103 ± 3.6	102 ± 4.6	100 ± 6.2
C=CCc1ccc2c(c1O)C(=O)c1ccccc1C2=O [R162]	106 ± 5.3	103 ± 1.6	102 ± 2.1	102 ± 18	99.12 ± 0.61	103 ± 3.5	103 ± 8.4	101 ± 10	104 ± 4.1	98.1 ± 2.4	98.5 ± 4.3	101 ± 7.5	102 ± 1.3	100.6 ± 0.84	100 ± 2.6	104 ± 2.5	106 ± 4.2	97.8 ± 2.4	97.07 ± 0.71	90.6 ± 9.3
C[C@H]1O[C@@H](O[C@H]2[C@@H](O)C[C@H](O[C@H]3[C@@H](O)C[C@H](O[C@H]4CC[C@@]5(C)[C@H](CC[C@@H]6[C@@H]5C[C@@H](O)[C@]5(C)[C@@H](C7=CC(=O)OC7)CC[C@]65O)C4)O[C@@H]3C)O[C@@H]2C)C[C@H](O)[C@@H]1O [Digoxin]	75.4 ± 20	96.3 ± 4.9	84.4 ± 2.7	90.5 ± 2.1	100.2 ± 0.99	102.5 ± 0.88	79.1 ± 12	89.6 ± 7.5	59.9 ± 4.1	59.4 ± 21	67.8 ± 22	51.4 ± 16	-2.24 ± 0.7	0.303 ± 2.7	-2.57 ± 0.89	-2.59 ± 1.1	-0.643 ± 0.45	-1.62 ± 0.34	-1.79 ± 0.52	-1.33 ± 0.87
CC(C)Cc1sc(N)nc1-c1ccc(P(=O)(O)O)o1	105 ± 4.8	101 ± 7.6	108 ± 9.1	97.8 ± 1.5	99.1 ± 8.8	100.4 ± 0.35	96.7 ± 7.1	89.8 ± 15	99.2 ± 21	105 ± 7.3	103 ± 8.6	109 ± 9.9	102 ± 3.8	104 ± 1.7	105 ± 3	98.8 ± 7.3	101 ± 1.6	99.2 ± 4.2	100 ± 3.6	105 ± 9.4
